Laboratory results: patent US20080214527A1, “Hiv Integrase Inhibitors” (priority 2005, published 2008)

Assays:
[1] = test system: HIV-1 (IIIB strain) in MT-4 cells; assay: MT4 assay: inhibition of virus-induced CPE in MT-4 cells (MTT method); format: cell-based; settings: Human immunodeficiency virus 1, MT4, 96 h, 4-day incubation, read-out: anti-HIV activity EC50
Protocol: MT-4 cells (human T-cell line established by HTLV-I-induced transformation) were cultured in RPMI1640 medium supplemented with 10% fetal calf serum and kanamycin ([…]) in 5% CO2, humidified incubator at 37° C. The stock of HIV-1 was produced as follows. Molt-4 cells persistently infected with HIV-1 (IIIB strain) were cultured for 3 days and culture supernatant was collected. After removal of cells by centrifugation, the supernatant was passed through membrane filter ([…]) and stored as cell-free culture supernatant at −80° C. The infectivity of the stock virus was measured by MTT assay.
Anti-HIV activity in vitro of test compounds was assayed by inhibition of virus-induced CPE in MT-4 cells. MT-4 cells were suspended in culture medium at 2.5×10^5 cells/ml. The cell suspension ([…]) was added to each well of a 96 well flat-bottom microtiter plate containing serial 2-fold dilution of test compounds ([…]). HIV-1 ([…]) was added to each well (4-10 TCID50/well). After 4-day incubation at 37° C., the viability of MT-4 cells was determined by the MTT method using 3-(4,5-dimethylthiazol-2-yl)-2,5-diphenyltetrazolium bromide.
The absorbance (OD) of each well was measured at two wavelengths (560 and 690 nm). All data represent the average values of three wells. The concentration (conc.) achieving 50% protection of HIV replication (EC50) were calculated.

[2] = target: HIV integrase (Human immunodeficiency virus type 1 group M subtype B, UniProt P04585); assay: Integrase inhibition assay (substrate DNA/target DNA microtiter plate, OD 405 nm); format: biochemical
Protocol: The inhibitory activities of the present compounds against integrase were determined by the assay described below.
A substrate DNA solution (2 pmol/μl) and a target DNA solution (5 pmol/μl) were prepared by the same method as that described in Experimental Example 1 of WO 2004/024693. The DNA solutions were heated and then slowly cooled so that they were annealed with each complement. Each sequence of the substrate DNA and the target DNA is the same as described in the Experimental Example.
Streptavidin, obtained from Vector Laboratories, was dissolved in 0.1 M carbonate buffer (composition: 90 mM Na2CO3, 10 mM NaHCO3) at a concentration of 40 μg/ml. After coating each well of microtiter plates (obtained from NUNC) with 50 μl of the above solution at 4° C. over night, each well was washed twice with PBS (composition: […], 0.27 mM KCl, 0.43 mM Na2HPO4, 0.14 mM KH2PO4) and blocked with 300 μl of 1% skim milk in PBS for 30 min. Additionally, each well was washed twice with PBS and added with 50 μl of the substrate DNA solution (2 pmol/μl). The microtiter plates were kept at room temperature for 30 min. Then, each well was washed twice with PBS and once with H2O.
Subsequently, to the each well prepared above were added 51 μl of the reaction buffer prepared from 12 μl of the buffer (composition: 150 mM MOPS (pH 7.2), 75 mM MnCl2, 50 mM 2-mercaptoethanol, 25% glycerol, 500 μg/ml bovine serum albumin-fraction V) and 39 μl of the distilled water. Additionally, 9 μl of an integrase solution (30 pmol) was added thereto and the mixture was mixed well. To the well of negative control (NC) was added 9 μl of the integrase dilution buffer (composition: 20 mM MOPS (pH7.2), 400 mM potassium glutamate, 1 mM EDTA, 0.1% NP-40, 20% glycerol, 1 mM DTT, 4 M urea).
The microtiter plates were incubated at 30° C. for 1 hour. The reaction solution was removed and each well was washed three times with 250 μl of the wash buffer (composition: 150 mM MOPS (pH 7.2), 50 mM 2-mercaptoethanol, 25% glycerol, 500 μg/ml bovine serum albumin-fraction V).
Subsequently, to each well prepared above were added 53 μl of the reaction buffer prepared from 12 μl of the buffer (composition: 150 mM MOPS (pH 7.2), 75 mM MgCl2, 50 mM 2-mercaptoethanol, 25% glycerol, 500 μg/ml bovine serum albumin-fraction V) and 41 μl of the distilled water. Additionally, 6 μl of either a test compound in DMSO or DMSO for positive control (PC) was mixed well. After the microtiter plates were incubated at 30° C. for 30 minutes, 1 μl of target DNA (5 pmol/μl) was added to each well, and the reaction mixture was mixed well.
The microtiter plates were incubated at 30° C. for 10 minutes. The reaction solution was removed and each well was washed twice with PBS. Subsequently, each well of the microtiter plates was filled with 100 μl of anti-digoxigenin antibody labeled with alkaline phosphatase (Sheep Fab fragment: obtained from Boehringer) and incubated at 30° C. for 1 hour. Then, each well was washed twice with 0.05% Tween20 in PBS and once with PBS. Next, 150 μl of the Alkaline phosphatase reaction buffer (composition: 10 mM p-Nitrophenylphosphate (obtained from Vector Laboratories), 5 mM MgCl2, 100 mM NaCl, 100 mM Tris-HCl (pH 9.5)) was added to each well. The microtiter plates were incubated at 30° C. for 2 hours and the reaction was terminated by the addition of 50 μl of 1 N NaOH solution. The optical density (OD) at 405 nm of each well was measured and the percent inhibition was determined by the following expression.
The percent inhibition (%)=100[1−{(C abs.−NC abs.)/(PC abs.−NC abs.)}]
When the percent inhibition (%) is X % at a concentration of ×μg/ml and the percent inhibition (%) is Y % at a concentration of y μg/ml, one of which is more than 50% and the other is less than 50%, IC50 can be determined by the following expression.
IC50(μg/ml)=x−{(X−50)(x−y)/(X−Y)}

Row | SMILES | EC50 [1] | IC50 [2] | melting point
1 | COCC#Cc1cc(F)ccc1Cc1cnc2c(O)c(C(=O)NCCO)c(=O)n(C)c2c1 [Example 13, 7-[4-Fluoro-2-(3-methoxy-prop-1-ynyl)-benzyl]-4-hydroxy-1-methyl-2-oxo-1,2-dihydro-[1,5]naphthyridine-3-carboxylic acid(2-hydroxy-ethyl)-amide] | 1 to 100 nM | < 100 nM | –
2 | COCCNC(=O)c1c(O)c2ncc(Cc3ccc(F)cc3COC(N)=O)cc2n(C)c1=O [Example 22, Carbamic acid 5-fluoro-2-[8-hydroxy-7-(2-methoxy-ethylcarbamoyl)-5-methyl-6-oxo-5,6-dihydro-[1,5]naphthyridin-3-ylmethyl]-benzyl ester] | 1 to 100 nM | < 100 nM | 180 to 183 °C
3 | COCc1cc(F)ccc1Cc1cnc2c(O)c(C(=O)NCCO)c(=O)n(C)c2c1 [Example 25, 7-(4-Fluoro-2-methoxymethyl-benzyl)-4-hydroxy-1-methyl-2-oxo-1,2-dihydro-[1,5]naphthyridine-3-carboxylic acid(2-hydroxy-ethyl)-amide] | 1 to 100 nM | < 100 nM | –
4 | CN(Cc1cc(F)ccc1Cc1cnc2c(O)c(C(=O)NCCO)c(=O)n(C)c2c1)S(C)(=O)=O [Example 72, 7-{4-Fluoro-2-[(methanesulfonyl-methyl-amino)-methyl]-benzyl}-4-hydroxy-1-methyl-2-oxo-1,2-dihydro-[1,5]naphthyridine-3-carboxylic acid(2-hydroxy-ethyl)-amide] | 1 to 100 nM | < 100 nM | –
5 | CCNC(=O)OCc1cc(F)ccc1Cc1cnc2c(O)c(C(=O)NCCO)c(=O)n(C)c2c1 | – | – | 180 to 182 °C
6 | Cn1c(=O)c(C(=O)NCCO)c(O)c2ncc(Cc3ccc(F)cc3CN3CCCCS3(=O)=O)cc21 [Example 33, 7-[2-(1,1-Dioxo-1lambda*6*-[1,2]thiazinan-2-ylmethyl)-4-fluoro-benzyl]-4-hydroxy-1-methyl-2-oxo-1,2-dihydro-[1,5]naphthyridine-3-carboxylic acid(2-hydroxy-ethyl)-amide] | 1 to 100 nM | < 100 nM | –
7 | Cn1c(=O)c(C(=O)NCCO)c(O)c2ncc(Cc3ccc(F)cc3COC(N)=O)cc21 | – | – | 238 to 240 °C
8 | COCC#Cc1cc(F)ccc1Cc1cnc2c(O)c(C(=O)NCCOC)c(=O)n(C)c2c1 [Example 15, 7-[4-Fluoro-2-(3-methoxy-prop-1-ynyl)-benzyl]-4-hydroxy-1-methyl-2-oxo-1,2-dihydro-[1,5]naphthyridine-3-carboxylic acid(2-methoxy-ethyl)-amide] | 1 to 100 nM | < 100 nM | 179 to 180 °C
9 | Cn1c(=O)c(C(=O)NCCO)c(O)c2ncc(Cc3ccc(F)cc3OCCN3CCOCC3)cc21 [Example 9, 7-[4-Fluoro-2-(2-morpholin-4-yl-ethoxy)-benzyl]-4-hydroxy-1-methyl-2-oxo-1,2-dihydro-[1,5]naphthyridine-3-carboxylic acid(2-hydroxy-ethyl)-amide] | 1 to 100 nM | < 100 nM | 161 to 162 °C
10 | CCNC(=O)OCc1cc(F)ccc1Cc1cnc2c(O)c(C(=O)NCCOC)c(=O)n(C)c2c1 | – | – | 157 to 159 °C
11 | CC(=O)c1cc(F)ccc1Cc1cnc2c(O)c(C(=O)NCCO)c(=O)n(C)c2c1 [Example 17, 7-(2-Acetyl-4-fluoro-benzyl)-4-hydroxy-1-methyl-2-oxo-1,2-dihydro-[1,5]naphthyridine-3-carboxylic acid(2-hydroxy-ethyl)-amide] | 1 to 100 nM | < 100 nM | 212 to 215 °C
